# Experimental data reported in ChEMBL document CHEMBL3352426, “A natural phenylpropionate derivative from Mirabilis himalaica inhibits cell proliferation and induces apoptosis in HepG2 cells” (Bioorg Med Chem Lett, 2014).
# Calls of active or inactive are those of the source. The rule behind the calls is not given here.
# Key:
# HepG2 [1] = experiment: Effect on Cyclin A expression in human HepG2 cells after 48 hrs by Western blot analysis; assay type: functional, cell-based
# HepG2 [2] = experiment: Induction of apoptosis in human HepG2 cells assessed as assessed as accumulation at S phase after 48 hrs by propidium iodide staining-based flow cytometric analysis (reference value: 18.9%); assay type: functional
# HepG2 [3] = experiment: Cytotoxicity against human HepG2 cells assessed as inhibition of cell proliferation at 2.5 to 40 ug/ml by CCK8 assay; assay type: functional, cell-based; conditions: TDE = time-dependent effect
# HepG2 [4] = experiment: Induction of alteration in mitochondrial membrane potential in human HepG2 cells assessed as decrease Rh-123 fluorescence at 5 ug/ml after 48 hrs by flow cytometric analysis; assay type: functional; conditions: HepG2, 48 h
# HepG2 [5] = experiment: Effect on CDK2 expression in human HepG2 cells after 48 hrs by Western blot analysis; assay type: functional, cell-based
# HepG2 [6] = experiment: Cytotoxicity against human HepG2 cells assessed as inhibition of cell proliferation at 20 ug/ml by MTT assay; assay type: functional
# HepG2 [7] = experiment: Induction of apoptosis in human HepG2 cells assessed as assessed as accumulation at G0/G1 phase after 48 hrs by propidium iodide staining-based flow cytometric analysis (reference value: 70.8%); assay type: functional
# HepG2 [8] = experiment: Increase in p21 expression in human HepG2 cells after 48 hrs by Western blot analysis; assay type: functional, cell-based
# HepG2 [9] = experiment: Effect on CDK6 expression in human HepG2 cells after 48 hrs by Western blot analysis; assay type: functional, cell-based
# HepG2 [10] = experiment: Cytotoxicity against human HepG2 cells assessed as decrease in positive staining after 1 hr by BrdU immunofluorescence assay relative to untreated control; assay type: functional
# [11] = Cytotoxicity against human L02 cells assessed as assessed as apoptotic cells after 48 hrs by annexin V/propidium iodide staining-based flow cytometric analysis; assay type: cell-based; conditions: l02, 48 h
# HepG2 [12] = experiment: Induction of alteration in mitochondrial membrane potential in human HepG2 cells assessed as decrease Rh-123 fluorescence at 10 ug/ml after 48 hrs by flow cytometric analysis; assay type: functional; conditions: HepG2, 48 h
# HepG2 [13] = experiment: Induction of apoptosis in human HepG2 cells transfected with p53 shRNA assessed as apoptotic cell accumulation after 48 hrs by annexin V/propidium iodide staining-based flow cytometric analysis; assay type: functional
# HepG2 [14] = experiment: Effect on Cyclin D1 expression in human HepG2 cells after 48 hrs by Western blot analysis; assay type: functional, cell-based
# HepG2 [15] = experiment: Antitumor activity against human HepG2 cells injected in ip dosed mouse assessed as reduction in tumor size treated for 13 days; assay type: functional
# HepG2 [16] = experiment: Induction of apoptosis in human HepG2 cells assessed as increase in Bax level after 48 hrs by Western blot analysis; assay type: functional, cell-based
# HepG2 [17] = experiment: Induction of alteration in mitochondrial membrane potential in human HepG2 cells assessed as decrease Rh-123 fluorescence at 20 ug/ml after 48 hrs by flow cytometric analysis; assay type: functional; conditions: HepG2, 48 h
# HepG2 [18] = experiment: Cytotoxicity against human HepG2 cells assessed as inhibition of cell proliferation after 48 hrs by CCK8 assay; assay type: functional, cell-based
# HepG2 [19] = experiment: Induction of apoptosis in human HepG2 cells assessed as caspase 3 activation after 48 hrs by Western blot analysis; assay type: functional, cell-based
# HepG2 [20] = experiment: Increase in p53 expression in human HepG2 cells after 48 hrs by Western blot analysis; assay type: functional, cell-based
# HepG2 [21] = experiment: Induction of apoptosis in human HepG2 cells assessed as assessed as increase in apoptotic cells after 48 hrs by annexin V/propidium iodide staining-based flow cytometric analysis; assay type: functional
# Mus musculus = experiment: Toxicity in human HepG2 cells injected in ip dosed mouse assessed as change in body weight; assay type: organism-based; conditions: in vivo
# HepG2 [22] = experiment: Induction of apoptosis in human HepG2 cells assessed as decrease in Bcl2 level after 48 hrs by Western blot analysis; assay type: functional, cell-based
# HepG2 [23] = experiment: Induction of apoptosis in human HepG2 cells assessed as assessed as accumulation at G2/M phase after 48 hrs by propidium iodide staining-based flow cytometric analysis (reference value: 10.4%); assay type: functional
# HepG2 [24] = experiment: Induction of apoptosis in human HepG2 cells transfected with pBabe-puro assessed as apoptotic cell accumulation after 48 hrs by annexin V/propidium iodide staining-based flow cytometric analysis; assay type: functional
# HepG2 [25] = experiment: Induction of alteration in mitochondrial membrane potential in human HepG2 cells assessed as decrease Rh-123 fluorescence after 48 hrs by flow cytometric analysis; assay type: functional, cell-based
# HepG2 [26] = experiment: Effect on CDK4 expression in human HepG2 cells after 48 hrs by Western blot analysis; assay type: functional, cell-based
# HepG2 [27] = experiment: Induction of apoptosis in human HepG2 cells transfected with pBabe-puro with Bcl2 assessed as apoptotic cell accumulation after 48 hrs by annexin V/propidium iodide staining-based flow cytometric analysis; assay type: functional
smiles,measurement,setting,value
COc1cc(OC(=O)/C=C/c2ccc(O)cc2OC)ccc1O,Activity,HepG2 [1],inactive
same,Activity,HepG2 [2],36%
same,inhibition,HepG2 [3],tde
same,inhibition at 5 µg/mL,HepG2 [4],37.1%
same,Activity,HepG2 [5],inactive
same,inhibition at 20 µg/mL,HepG2 [6],37%
same,Activity,HepG2 [7],52.6%
same,Activity,HepG2 [8],Active
same,Activity,HepG2 [9],inactive
same,inhibition (INH),HepG2 [10],40%
same,Activity,[11],Non-toxic
same,inhibition at 10 µg/mL,HepG2 [12],69.5%
same,Activity,HepG2 [13],68.8%
same,Activity,HepG2 [14],inactive
same,inhibition (INH),HepG2 [15],50%
same,Activity,HepG2 [16],Active
same,inhibition at 20 µg/mL,HepG2 [17],84.9%
same,inhibition,HepG2 [18],Dose-dependent effect
same,IC50,"HepG2 [18]; HepG2, 48 h",15.1 mg/L
same,Activity,HepG2 [19],Active
same,Activity,HepG2 [20],Active
same,Activity,HepG2 [21],89.9%
same,Activity,Mus musculus,Non-toxic
same,inhibition,HepG2 [22],Active
same,Activity,HepG2 [23],11.4%
same,Activity,HepG2 [24],75.4%
same,inhibition,HepG2 [25],Dose-dependent effect
same,Activity,HepG2 [26],inactive
same,Activity,HepG2 [27],26.9%
